Reference: article PMC9693575, “Isopropyl Amino Acid Esters Ionic Liquids as Vehicles for Non-Steroidal Anti-Inflammatory Drugs in Potential Topical Drug Delivery Systems with Antimicrobial Activity” (International Journal of Molecular Sciences, 2022)
In brackets after ≈: the same amount, converted by molar mass. Like-named read-outs stand apart in the source and are kept apart here.

Assays:
[1] = Solubility in water and phosphate buffers
Description: This study aims to compare the influence of amino acid structure on the physicochemical properties of NSAID salts with the isopropyl ester of amino acids.

[2] = system: Micrococcus Luteus; test: Disc diffusion antimicrobial susceptibility test, Micrococcus luteus; type: cell-based; set-up: key to Inhibition diameter: -: no growth of the organism; conditions: for zone of inhibition at 600000 µg/mL: solution transferred to disc 600 mg cm^−3; for zone of inhibition at 800000 µg/mL: solution transferred to disc 800 mg cm^−3
[3] = pKa / pKB by potentiometric acid-base titration and formation constant log(KS); conditions: for Log(KS) formation constant: calculated from pKA of acid and pKB of base
Protocol: Determination of formation constant pKs
Zabrze, Poland). For the measurement of pKA acids, 0.1 M NaOH was used. In order to
ester hydrochloride, HCl aqueous solution, was added in an amount that allowed reach-
After that, an acid-base titration was made out by adding dropwise 5 mM

[4] = n-octanol-water partition coefficient (logP), shake flask method; type: physicochemical
[5] = system: Escherichia coli; test: Disc diffusion antimicrobial susceptibility test, Escherichia coli; type: cell-based; set-up: key to Inhibition diameter: -: no growth of the organism
Protocol: (§1) The plates were incubated for 24 h at 37 °C.

[6] = system: Staphylococcus epidermidis; test: Disc diffusion antimicrobial susceptibility test, Staphylococcus epidermidis; type: cell-based; set-up: key to Inhibition diameter: -: no growth of the organism
Protocol: as §1

[7] = Solubility in organic solvents (modified Vogel's method); conditions: 25 °C
[8] = Thermogravimetric analysis (thermal stability); conditions: for TDTGmax, maximum decomposition temperature: DTG
Protocol: The thermal stabilities of the obtained NSAIDs isopropyl ester amino acid salts were investigated. […] The beginning of thermal degradation was evaluated based on the value of onset of the TG curve, which occurs in the first phase of the process. […]
Thermogravimetric analysis (TG)
Thermogravimetric analysis was carried out using Netzsch Proteus Thermal Analy- […]
Samples of 5–8 mg were loaded in Al2O3 […]
ment was performed in an air atmosphere (25 cm3min−1) with nitrogen flow (10 cm3min−1) […]
Differential scanning calorimetry (DSC)
Phase transformation temperatures were determined on a PerkinElmer DSC-7 (Rot-gau, Germany). The samples of 3–5 mg were loaded on the aluminum pan with a crimped lid. Measurements were carried out in a nitrogen atmosphere (20 cm3 min-1). The rate of heating/cooling was 5°C min-1. […]
tained for 30 min inside the furnace, then cooled to 0°C to condition the sample and the crucible. After that, heating was conducted to the specified temperature, followed by cool-ing. Unless otherwise stated, two complete cycles of heating and cooling were performed.
The specified maximum temperature was individual for each compound, determined from TG analysis, and it was at least 10°C lower than the onset decomposition tempera-ture. Temperatures reported from DSC data are curve peaks, the melting points being endothermic upon heating and crystallization point being exothermic upon cooling. Lead, indium, tin, and zinc were used as standards to calibrate the temperature. Indium was used for enthalpy measurement calibration. […]

[9] = deionized water, 25 °C, AS = unmodified acid
[10] = pH 5.4, 25 °C, AS = unmodified acid
[11] = pH 7.4, 25 °C, AS = unmodified acid
[12] = Micrococcus luteus, 24 h, read-out: Inhibition diameter
[13] = solution transferred to disc 25 mg cm^−3
[14] = solution transferred to disc 50 mg cm^−3
[15] = solution transferred to disc 100 mg cm^−3
[16] = solution transferred to disc 200 mg cm^−3
[17] = solution transferred to disc 400 mg cm^−3
[18] = n-octanol-water, shake flask, read-out: LogP
[19] = Escherichia coli, 24 h, solution transferred to disc 200 mg cm^−3, read-out: Inhibition diameter
[20] = Escherichia coli, 24 h, solution transferred to disc 400 mg cm^−3, read-out: Inhibition diameter
[21] = Escherichia coli, 24 h, solution transferred to disc 600 mg cm^−3, read-out: Inhibition diameter
[22] = Staphylococcus epidermidis, 24 h, solution transferred to disc 600 mg cm^−3, read-out: Inhibition diameter
[23] = Staphylococcus epidermidis, 24 h, solution transferred to disc 800 mg cm^−3, read-out: Inhibition diameter
[24] = TG, air atmosphere, 10 °C min−1
[25] = Micrococcus luteus, 24 h, solution transferred to disc 400 mg cm^−3, read-out: Inhibition diameter
[26] = Staphylococcus epidermidis, 24 h, solution transferred to disc 400 mg cm^−3, read-out: Inhibition diameter
[27] = Micrococcus luteus, 24 h, solution transferred to disc 100 mg cm^−3, read-out: Inhibition diameter
[28] = Micrococcus luteus, 24 h, solution transferred to disc 200 mg cm^−3, read-out: Inhibition diameter
[29] = solution transferred to disc 600 mg cm^−3
[30] = solution transferred to disc 1000 mg cm^−3

Compound | solubility thermodynamic ([1]; pH 5.4, aqueous buffer) | solubility thermodynamic ([1]; pH 7.4, aqueous buffer) | solubility thermodynamic ([1]; water) | zone of inhibition at 600000 µg/mL [2, 12] | zone of inhibition at 800000 µg/mL [2, 12] | Inhibition diameter [2, 13] | Inhibition diameter [2, 14] | logP [4, 18] | zone of inhibition at 200000 µg/mL [5, 19] | zone of inhibition at 400000 µg/mL [5, 20] | zone of inhibition at 600000 µg/mL [5, 21] | Inhibition diameter [5, 13] | Inhibition diameter [5, 14] | Inhibition diameter [5, 15] | zone of inhibition at 600000 µg/mL [6, 22] | zone of inhibition at 800000 µg/mL [6, 23] | Inhibition diameter [6, 13] | Inhibition diameter [6, 14] | Inhibition diameter [6, 15] | Inhibition diameter [6, 16] | further results
CC[C@H](C)[C@H](N)C(=O)OC(C)C.O=C(O)c1ccccc1O [[L-IleOiPr][SA], L-isoleucine isopropyl ester salicylate] | 19.281 ± 0.015 mg/mL | 29.55 ± 0.041 mg/mL | 26.5 ± 0.422 mg/mL | 10.8 ± 0.5 mm | 12.4 ± 0.4 mm | - | - | 1.6 ± 0.034 | 6.2 ± 0.1 mm | 7.3 ± 0.3 mm | 13.7 ± 0.7 mm | - | - | - | 7.3 ± 0.4 mm | 10.5 ± 0.3 mm | - | - | - | - | Solubility in Water, as active substance [1, 9]: 11.793 ± 0.422 gAS dm^−3; Solubility in Phosphate Buffer pH = 5.4, as active substance [1, 10]: 8.581 ± 0.015 gAS dm^−3; Solubility in Phosphate Buffer pH = 7.4, as active substance [1, 11]: 13.149 ± 0.041 gAS dm^−3; Inhibition diameter [2, 15]: -; Inhibition diameter [2, 16]: -; Inhibition diameter [2, 17]: -; Log(KS) formation constant [3]: 7.25; Inhibition diameter [6, 17]: -; Solubility in Chloroform (39.1) [7]: ○ (soluble >100 mg cm^−3); Solubility in DMSO (45.1) [7]: ○ (soluble >100 mg cm^−3); Solubility in Dichloromethane (40.7) [7]: ○ (soluble >100 mg cm^−3); Solubility in Diethyl Ether (34.5) [7]: ○ (soluble >100 mg cm^−3); Solubility in Ethanol (59.1) [7]: ○ (soluble >100 mg cm^−3); Solubility in Ethyl Acetate (38.1) [7]: ○ (soluble >100 mg cm^−3); Solubility in Hexane (31.0) [7]: ● (insoluble <33 mg cm^−3); Solubility in Toluene (33.9) [7]: ○ (soluble >100 mg cm^−3); TDTGmax, maximum decomposition temperature ([8]; air atmosphere, 10 °C min−1): 202.4 °C; TTGonset, the onset of the thermal degradation [8, 24]: 144.2 °C
O=C(O)c1ccccc1O [SA, salicylic acid, reference compound] | 3.862 ± 0.005 mg/mL (≈ 28 mM) | 5.757 ± 0.024 mg/mL (≈ 41.7 mM) | 3.795 ± 0.004 mg/mL (≈ 27.5 mM) | 8.7 ± 0.8 mm | 9.4 ± 0.8 mm | - | - |  | 6.1 ± 0.1 mm | 6.4 ± 0.1 mm | 11 ± 0.8 mm | - | - | - | 7 ± 0.2 mm | 8.6 ± 0.3 mm | - | - | - | - | Solubility in Water, as active substance [1]: 3.795 ± 0.004 gAS dm^−3; Solubility in Phosphate Buffer pH = 5.4, as active substance ([1]; pH 5.4): 3.862 ± 0.005 gAS dm^−3; Solubility in Phosphate Buffer pH = 7.4, as active substance ([1]; pH 7.4): 5.757 ± 0.024 gAS dm^−3; zone of inhibition at 400000 µg/mL [2, 25]: 7.4 ± 0.4 mm; Inhibition diameter [2, 15]: -; Inhibition diameter [2, 16]: -; logP [4]: 1.32 ± 0.018; concentration from which the inhibitory effect was observed ([6]; S. epidermidis): ≥ 400 mg cm^−3; zone of inhibition at 400000 µg/mL [6, 26]: 6.2 ± 0.1 mm; TTGonset, the onset of the thermal degradation [8]: 146.2 °C; TDTGmax, maximum decomposition temperature ([8]; air atmosphere, 10 °C min−1): 198.8 °C
CC(C(=O)O)c1cccc(C(=O)c2ccccc2)c1 (racemic) [KETO, (R,S)-ketoprofen, reference compound] |  |  |  | 13.3 ± 0.2 mm | 14.2 ± 0.1 mm |  |  | 1.577 ± 0.01 |  |  |  | - | - | - |  |  | - | - | - | - | zone of inhibition at 25000 µg/mL ([2]; Micrococcus luteus, 24 h, solution transferred to disc 25 mg cm^−3, read-out: Inhibition diameter): 8.3 ± 0.3 mm; zone of inhibition at 50000 µg/mL ([2]; Micrococcus luteus, 24 h, solution transferred to disc 50 mg cm^−3, read-out: Inhibition diameter): 9.6 ± 0.2 mm; zone of inhibition at 100000 µg/mL [2, 27]: 10.2 ± 0.2 mm; zone of inhibition at 200000 µg/mL [2, 28]: 11.1 ± 0.4 mm; zone of inhibition at 400000 µg/mL [2, 25]: 12.5 ± 0.2 mm; pKa [3]: 4.11; Inhibition diameter [5, 16]: -; Inhibition diameter [5, 17]: -; Inhibition diameter [5, 29]: -; Inhibition diameter [5, 30]: -; Inhibition diameter [6, 17]: -; Inhibition diameter [6, 29]: -; Inhibition diameter ([6]; solution transferred to disc 800 mg cm^−3): -; Inhibition diameter [6, 30]: -
CSCC[C@H](N)C(=O)OC(C)C.O=C(O)c1ccccc1O [[L-MetOiPr][SA], L-methionine isopropyl ester salicylate] | 10.55 ± 0.007 mg/mL | 18.04 ± 0.046 mg/mL | 16 ± 0.533 mg/mL | 8.1 ± 0.9 mm | 10.5 ± 1 mm | - | - | 1.78 ± 0.035 | 14.4 ± 0.8 mm | 16.4 ± 0.3 mm | 18.8 ± 0.4 mm | - | - |  | 7.5 ± 0.2 mm | 9.2 ± 0.5 mm | - | - | - |  | Solubility in Water, as active substance [1, 9]: 6.749 ± 0.533 gAS dm^−3; Solubility in Phosphate Buffer pH = 5.4, as active substance [1, 10]: 4.437 ± 0.007 gAS dm^−3; Solubility in Phosphate Buffer pH = 7.4, as active substance [1, 11]: 7.586 ± 0.046 gAS dm^−3; zone of inhibition at 100000 µg/mL [2, 27]: 6.1 ± 0.1 mm; zone of inhibition at 200000 µg/mL [2, 28]: 6.3 ± 0.1 mm; zone of inhibition at 400000 µg/mL [2, 25]: 7.3 ± 0.4 mm; Log(KS) formation constant [3]: 7.00; zone of inhibition at 100000 µg/mL ([5]; Escherichia coli, 24 h, solution transferred to disc 100 mg cm^−3, read-out: Inhibition diameter): 7.8 ± 0.2 mm; zone of inhibition at 200000 µg/mL ([6]; Staphylococcus epidermidis, 24 h, solution transferred to disc 200 mg cm^−3, read-out: Inhibition diameter): 6.6 ± 0.2 mm; zone of inhibition at 400000 µg/mL [6, 26]: 7.1 ± 0.1 mm; Solubility in Chloroform (39.1) [7]: ○ (soluble >100 mg cm^−3); Solubility in DMSO (45.1) [7]: ○ (soluble >100 mg cm^−3); Solubility in Dichloromethane (40.7) [7]: ○ (soluble >100 mg cm^−3); Solubility in Diethyl Ether (34.5) [7]: ○ (soluble >100 mg cm^−3); Solubility in Ethanol (59.1) [7]: ○ (soluble >100 mg cm^−3); Solubility in Ethyl Acetate (38.1) [7]: ○ (soluble >100 mg cm^−3); Solubility in Hexane (31.0) [7]: ● (insoluble <33 mg cm^−3); Solubility in Toluene (33.9) [7]: ○ (soluble >100 mg cm^−3); TDTGmax, maximum decomposition temperature ([8]; air atmosphere, 10 °C min−1): 205.0 °C; TTGonset, the onset of the thermal degradation [8, 24]: 161.1 °C
